Drawing on US20230159469A1, “NOVEL PHTHALAZINE DERIVATIVE HAVING ECTONUCLOEOTIDE PYROPHOSPHATASE/PHOSPHODIESTE RASE INHIBITORY ACTIVITY, AND USE THEREOF” (TXINNO BIOSCIENCE INC., priority 2020, published 2023), this text covers IC50 for 33 compounds.

For orientation: IC50 means the point on the concentration scale where inhibition reaches its midpoint.

Where a name gives a salt, the structure may show the parent alone. Bounds are passed on as bounds.

The test concerns the target T1, human recombinant ENPP1 (Homo sapiens, UniProt P22413).
T1 construct: purchased R & D systems
T1 sequence (P22413 1-925): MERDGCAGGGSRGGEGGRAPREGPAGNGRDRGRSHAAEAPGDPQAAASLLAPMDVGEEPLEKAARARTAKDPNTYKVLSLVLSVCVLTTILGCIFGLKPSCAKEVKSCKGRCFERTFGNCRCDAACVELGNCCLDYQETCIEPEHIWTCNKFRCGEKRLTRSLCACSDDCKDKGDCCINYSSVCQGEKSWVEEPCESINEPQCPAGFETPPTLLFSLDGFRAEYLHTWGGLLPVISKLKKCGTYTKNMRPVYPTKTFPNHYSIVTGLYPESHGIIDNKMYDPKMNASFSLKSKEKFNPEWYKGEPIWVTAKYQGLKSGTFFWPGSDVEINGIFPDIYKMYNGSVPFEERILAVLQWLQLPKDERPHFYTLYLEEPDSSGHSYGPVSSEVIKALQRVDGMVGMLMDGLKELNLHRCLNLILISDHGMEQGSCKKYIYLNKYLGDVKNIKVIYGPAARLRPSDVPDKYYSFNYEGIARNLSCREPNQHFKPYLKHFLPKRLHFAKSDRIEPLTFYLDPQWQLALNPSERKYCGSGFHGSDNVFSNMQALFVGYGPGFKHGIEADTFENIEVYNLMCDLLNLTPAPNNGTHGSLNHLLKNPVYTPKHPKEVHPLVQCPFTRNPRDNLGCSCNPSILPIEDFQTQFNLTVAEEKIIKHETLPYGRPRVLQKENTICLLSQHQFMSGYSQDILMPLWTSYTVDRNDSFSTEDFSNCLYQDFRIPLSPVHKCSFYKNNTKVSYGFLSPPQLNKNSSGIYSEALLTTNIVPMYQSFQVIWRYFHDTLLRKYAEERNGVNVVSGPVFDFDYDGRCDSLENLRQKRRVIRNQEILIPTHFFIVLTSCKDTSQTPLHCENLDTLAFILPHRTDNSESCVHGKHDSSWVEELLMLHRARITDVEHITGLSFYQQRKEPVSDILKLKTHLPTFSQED
The test is described as follows: ENPP1 enzyme assay with cGAMP substrate (AMP-Glo luminescence). The following applies: human recombinant ENPP1 3 ng/reaction, cGAMP 5 μM, 37° C. 90 minutes, read-out: Enzymatic activity (ENPP1 IC50). The class given is biochemical. In short, it runs like this: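 Human ENPP1 hydrolysis of 5 μM cGAMP was run for 90 min at 37° C in 50 mM Tris pH 8.5, 250 mM NaCl, 0.5 mM CaCl2, 1 μM ZnCl2, 5% glycerol, 1% DMSO. AMP product was quantified by AMP-Glo luminescence; IC50 came from 3-parameter fits of % residual activity, averaged over at least two runs.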
As to `NS(=O)(=O)NCc1ccc(-c2nn(Cc3ccccc3)c(=O)c3ccccc23)cc1` [Compound No. 101, N-(4-(3-benzyl-4-oxo-3,4-dihydrophthalazin-1-yl)benzyl)sulfamide hydrochloride], the IC50 was in the range of 1 to 10 µM.

Take `COc1cc2c(-c3ccc4c(c3)CNCC4)n[nH]c(=O)c2cc1OC` [Compound No. 59, 6,7-dimethoxy-4-(1,2,3,4-tetrahydroisoquinolin-7-yl) phthalazin-1(2H)-one]: the IC50 is > 10 µM.

Turning to `Cn1nc(Cc2ccc(NS(N)(=O)=O)cc2)c2ccccc2c1=O` [Example 181, N-(4-((3-methyl-4-oxo-3,4-dihydrophthalazin-1-yl)methyl)phenyl)sulfamide hydrochloride], the IC50 was < 1 µM.

For `Cn1nc(Cc2ccc(NC(=O)OC(C)(C)C)cc2)c2ccccc2c1=O` [Compound No. 148, tert-butyl (4-((3-methyl-4-oxo-3,4-dihydrophthalazin-1-yl)methyl)phenyl)carbamate], the IC50 was > 10 µM.

In the case of `COc1cc2c(Cc3cccc(NS(=O)(=O)NC(=O)OC(C)(C)C)c3)nn(C)c(=O)c2cc1OC` [Example 168, tert-butyl (N-(3-((6,7-dimethoxy-3-methyl-4-oxo-3,4-dihydrophthalazin-1-yl)methyl)phenyl)sulfamoyl)carbamate], the IC50 was > 10 µM.

With `COc1cc2c(N3CCC(CN)CC3)n[nH]c(=O)c2cc1OC` [Compound No. 135, 4-(4-(aminomethyl)piperidin-1-yl)-6,7-dimethoxyphthalazin-1(2H)-one hydrochloride], the IC50 is > 10 µM.

`CC(C)(N)c1ccc(-c2n[nH]c(=O)c3ccccc23)cc1` [Compound No. 52, 4-(4-(2-aminopropan-2-yl)phenyl)phthalazin-1(2H)-one hydrochloride]: the IC50 was 1 to 10 µM.

Consider `CC(C)(C)OC(=O)NS(=O)(=O)NCC1CCN(c2n[nH]c(=O)c3ccccc23)CC1` [Compound No. 136, tert-butyl N-((1-(4-oxo-3,4-dihydrophthalazin-1-yl)piperidin-4-yl)methyl)sulfamoyl carbamate], for which the IC50 is > 10 µM.

For the compound `COc1cc2c(-c3ccc(CNS(N)(=O)=O)c(F)c3)n[nH]c(=O)c2cc1OC` [Compound No. 111, N-(4-(6,7-dimethoxy-4-oxo-3,4-dihydrophthalazin-1-yl)-2-fluorobenzyl)sulfamide hydrochloride], the IC50 is < 1 µM.

With `NS(=O)(=O)N1CCc2ccc(-c3n[nH]c(=O)c4ccccc34)cc2C1` [Compound No. 121, 7-(4-oxo-3,4-dihydrophthalazin-1-yl)-3,4-dihydroisoquinoline-2(1H) sulfamide hydrochloride], the IC50 is < 1 µM.

With `COc1cc2c(-c3ccc4c(c3)CCN(S(N)(=O)=O)C4)nn(C)c(=O)c2cc1OC` [Compound No. 131, 6-(6,7-dimethoxy-3-methyl-4-oxo-3,4-dihydrophthalazin-1-yl)-3,4-dihydroisoquinoline-2(1H)-sulfonamide hydrochloride], the IC50 fell in the range of 1 to 10 µM.

For the compound `Cn1nc(-c2ccc3c(c2)CCN(C(=O)OC(C)(C)C)C3)c2ccccc2c1=O` [Compound No. 27, tert-butyl-6-(3-methyl-4-oxo-3,4-dihydrophthalazin-1-yl)-3,4-dihydroisoquinoline-2(1H)-carboxylate], the IC50 is > 10 µM.

Regarding `COc1ccc2c(=O)[nH]nc(-c3ccc(CN)cc3)c2c1` [Compound No. 43, 4-(4-(aminomethyl)phenyl)-6-methoxyphthalazin-1(2H)-one hydrochloride], the IC50 is < 1 µM.

For the compound `Cn1nc(-c2ccc(CS(=O)(=O)N3CCOCC3)cc2)c2ccccc2c1=O` [Example 201, 2-methyl-4-(4-((morpholinosulfonyl)methyl)phenyl)phthalazin-1 (2H)-one], the IC50 was > 10 µM.

On to `CC(C)(C)OC(=O)NCc1ccc(-c2nn(Cc3ccc(F)cc3)c(=O)c3ccccc23)cc1` [Compound No. 14, tert-butyl (4-(3-(4-fluorobenzyl)-4-oxo-3,4-dihydrophthalazin-1-yl)benzyl)carbamate], for which the IC50 was > 10 µM.

As for `COc1cc2c(Cc3ccc(NS(N)(=O)=O)cc3)n[nH]c(=O)c2cc1OC` [Example 182, N-(4-((6,7-dimethoxy-4-oxo-3,4-dihydrophthalazin-1-yl)methyl)phenyl)sulfamide hydrochloride], the IC50 was < 1 µM.

As to `COc1cc2c(Nc3ccc(NS(N)(=O)=O)cc3)nn(C)c(=O)c2cc1OC` [Compound No. 140, N-(4-(6,7-dimethoxy-3-methyl-4-oxo-3,4-dihydrophthalazin-1-yl)-amino)phenyl)sulfamide hydrochloride], the IC50 is > 10 µM.

As to `O=c1[nH]nc(-c2ccccc2)c2ccccc12` [Compound No. 1, 4-phenylphthalazin-1(2H)-one], the IC50 lay within 1 to 10 µM.

Take `COc1cc2c(N3CCC(CNS(N)(=O)=O)CC3)n[nH]c(=O)c2cc1OC` [Compound No. 139, N-((1-(6,7-dimethoxy-4-oxo-3,4-dihydrophthalazin-1-yl)piperidin-4-yl)methyl)sulfamide hydrochloride]: the IC50 is < 1 µM.

On to `Cn1nc(-c2cccc(CNC(=O)OC(C)(C)C)c2)c2ccccc2c1=O` [Compound No. 6, tert-butyl 3-(3-methyl-4-oxo-3,4-dihydrophthalazin-1-yl) benzyl carbamate], for which the IC50 is > 10 µM.

Turning to `NS(=O)(=O)Nc1ccc(Cc2n[nH]c(=O)c3ccccc23)cc1C(F)(F)F` [Example 192, N-(2-(trifluorobenzylmethyl)-4-((4-oxo-3,4-dihydrophthalazin-1-yl)methyl)phenyl)sulfamide hydrochloride], the IC50 is < 1 µM.

Regarding `COc1cc2c(Cc3ccc(NC(=O)OC(C)(C)C)cc3)nn(C)c(=O)c2cc1OC` [Compound No. 150, tert-butyl (4-((6,7-dimethoxy-3-methyl-4-oxo-3,4-dihydrophthalazin-1-yl)methyl)phenyl)carbamate], the IC50 was > 10 µM.

`CC(C)(C)OC(=O)N1CCc2cc(-c3n[nH]c(=O)c4ccccc34)ccc2C1` [Compound No. 26, tert-butyl 6-(4-oxo-3,4-dihydrophthalazin-1-yl)-3,4-dihydroisoquinoline-2(1H)-carboxylate]: the IC50 was > 10 µM.

`Cn1nc(-c2cccc(N)c2)c2ccccc2c1=O` [Compound No. 31, 4-(3-aminophenyl)-2-methylphthalazin-1(2H)-one hydrochloride]: the IC50 is > 10 µM.

Regarding `NS(=O)(=O)NCc1cccc(-c2nn(Cc3ccccc3)c(=O)c3ccccc23)c1` [Compound No. 90, N-(3-(3-benzyl-4-oxo-3,4-dihydrophthalazin-1-yl)benzyl)sulfamide hydrochloride], the IC50 was > 10 µM.

`COc1cc2c(Cc3cccc(Br)c3)n[nH]c(=O)c2cc1OC` [Example 193]: the IC50 is > 10 µM.

As for `COc1cc2c(Cc3cccc(N)c3)nn(C)c(=O)c2cc1OC` [Example 157, 4-(3-aminobenzyl)-6,7-dimethoxy-2-methylphthalazin-1(2H)-one hydrochloride], the IC50 is > 10 µM.

`COc1ccc2c(=O)[nH]nc(-c3ccc(CNS(N)(=O)=O)cc3)c2c1` [Compound No. 103, N-(4-(7-methoxy-4-oxo-3,4-dihydrophthalazin-1-yl)benzyl)sulfamide hydrochloride]: the IC50 is < 1 µM.

As for `CNc1ccc(Cc2n[nH]c(=O)c3ccccc23)cc1` [Example 162, 4-(4-(methylamino)benzyl)phthalazin-1(2H)-one hydrochloride], the IC50 is > 10 µM.

With `Nc1cccc(-c2nn(Cc3ccccc3)c(=O)c3ccccc23)c1` [Compound No. 32, 4-(3-aminophenyl)-2-benzylphthalazin-1(2H)-one hydrochloride], the IC50 was > 10 µM.

As for `Cn1nc(-c2ccc3c(c2)CCNC3)c2ccccc2c1=O` [Compound No. 56, 2-methyl-4-(1,2,3,4-tetrahydroisoquinolin-6-yl)phthalazin-1(2H)-one hydrochloride], the IC50 is 1 to 10 µM.

`NS(=O)(=O)Nc1ccc(Cc2n[nH]c(=O)c3ccccc23)cc1F` [Example 190, N-(2-fluoro-4-((4-oxo-3,4-dihydrophthalazin-1-yl)methyl)phenyl)sulfamide hydrochloride]: the IC50 is < 1 µM.

With `CC(C)n1nc(-c2ccc(CN)cc2)c2ccccc2c1=O` [Compound No. 39, 4-(4-(aminomethyl)phenyl)-2-isopropylphthalazin-1-(2H)-one hydrochloride], the IC50 was > 10 µM.
